# According to patent publication US9433621B2, “Substituted pyridine and pyrimidine derivatives and their use in treating viral infections” (Merck Sharp & Dohme Corp., priority 2010, dated 2016):
# Test system: HCV replicon
# Experiment: Cell-Based HCV Replicon Assay
# Settings: Hepatitis C virus, 72 h; Table IV; replicon cells, day 3, real time PCR; EC90 = concentration for ΔCT=3.2 over baseline; read-out: EC90
# Description: Cell-Based HCV Replicon Assay
# To measure cell-based anti-HCV activity of the compounds of the present invention, replicon cells were seeded at 5000 cells/well in 96-well collagen I-coated Nunc plates in the presence of the compound of the invention. Various concentrations of a compound of the invention, typically in 10 serial 2-fold dilutions, were added to the assay mixture, the starting concentration of the compound ranging from 25 μM to 1 μM. The final concentration of DMSO was 0.5%, fetal bovine serum was 10%, in the assay media. Cells were harvested on day 3 by the addition of 1× cell lysis buffer (Ambion cat #8721). The replicon RNA level was measured using real time PCR (Taqman assay). The amplicon was located in 5B. The PCR primers were: 5B.2F, ATGGACAGGCGCCCTGA; 5B.2R, […]; the probe sequence was FAM-labeled CACGCCATGCGCTGCGG. GAPDH RNA was used as endogenous control and was amplified in the same reaction as NS5B (multiplex PCR) using primers and VIC-labeled probe recommended by the manufacturer (PE Applied Biosystem). The real-time RT-PCR reactions were run on ABI PRISM® 7900HT Sequence Detection System using the following program: 48′C for 30 min, 95′C for 10 min, 40 cycles of 95′C for 15 sec, 60′C for 1 min. The ΔCT values (CT5B-CTGAPDH) were plotted against the concentration of test compound and fitted to the sigmoid dose-response model using Graph Pad PRISM® software. EC50 was defined as the concentration of inhibitor necessary to achieve ΔCT=1 over the projected baseline; EC90 the concentration necessary to achieve ΔCT=3.2 over the baseline. Alternatively, to quantitate the absolute amount of replicon RNA, a standard curve was established by including serially diluted T7 transcripts of replicon RNA in the Taqman assay. All Taqman reagents were from PE Applied Biosystems. Such an assay procedure was described in detail in e.g. Malcolm et al., Antimicrobial Agents and Chemotherapy 50: 1013-1020 (2006).
# HCV Replicon assay data for compounds of the invention that were tested were obtained using the above method.
row,Structure (SMILES),EC90 [µM]
1,Cc1ccc([C@@H](C)Nc2nc(C)c(-c3nc4c(C)nccc4s3)c(N[C@@H]3C[C@H](CO)[C@@H](O)[C@@]3(C)O)n2)cc1 [compound 3815],0.03
2,Cc1nc(NCc2c(F)cccc2F)nc(N[C@@H]2C[C@H](C(C)(C)O)[C@@H](O)[C@H]2O)c1-c1nc2c(N)nccc2s1 [Example 4443],0.055
3,Cc1nc(NCC2CC2)nc(N[C@@H]2C[C@H](CS(=O)(=O)c3ccncc3)[C@@H](O)[C@H]2O)c1-c1nc2c(C)nccc2s1 [Example 3580],0.012

# Same assay, conditions: Hepatitis C virus, 72 h; Table V, class codes; replicon cells, day 3, real time PCR; EC90 = concentration for ΔCT=3.2 over baseline; read-out: EC90 (uM) range
row,Structure (SMILES),EC90 [µM]
1,CS(=O)(=O)C[C@H]1C[C@@H](Nc2nc(NCC3CC3)ncc2-c2nc3c(C4CC4)nccc3s2)[C@H](O)[C@@H]1O [Example 4920],< 0.5
2,COC[C@@H](C)Nc1ncc(-c2nc3c(C)nccc3s2)c(N[C@@H]2C[C@H](C(C)(C)O)[C@@H](O)[C@H]2O)n1 [Example 4941],< 0.5
3,Cc1cc2sc(-c3c(C)nc(N[C@H](C)C4CC4)nc3N[C@@H]3C[C@H](CO)[C@@H](O)[C@H]3O)nc2cn1 [Example 4952],< 0.5
4,CCOCCNc1nc(C)c(-c2nc3cnc(C)cc3s2)c(N[C@@H]2C[C@H](CO)[C@@H](O)[C@H]2O)n1 [Example 4911],< 0.5
5,Cc1nc(N[C@H](C)c2ccc(OC(F)(F)F)cc2)nc(N[C@@H]2C[C@H](C(=O)Nc3ccccc3)[C@@H](O)[C@H]2O)c1-c1nc2c(C3CC3)nccc2s1 [Example 4951],0.5 to 5
6,Cc1nc(N[C@H](C)C2CC2)nc(N[C@@H]2C[C@H](C(=O)N3CCOCC3)[C@@H](O)[C@H]2O)c1-c1nc2c(C3CC3)nccc2s1 [Example 4923],< 0.5

# Same assay, conditions: Hepatitis C virus; HCV Replicon assay, EC90 given as numeric bound, Table VI; read-out: EC90
row,Structure (SMILES),EC90 [µM]
1,Cc1nc(NCC2(N(C)C)CCOCC2)nc(N[C@@H]2C[C@H](C(C)(C)O)[C@@H](O)[C@H]2O)c1-c1nc2c(C)nccc2s1 [Example 5282],> 1

# Same assay, conditions: Hepatitis C virus; HCV Replicon assay, EC90 range, Table VI; read-out: EC90
row,Structure (SMILES),EC90 [µM]
1,COC[C@@H](C)Nc1nc(C)c(-c2nc3c(C)nccc3s2)c(N[C@@H]2C[C@H](C(C)(C)O)[C@@H](OC)[C@H]2OC)n1 [Example 5263],< 0.5
2,Cc1nc(NCC2CC(F)(F)C2)nc(N[C@@H]2C[C@H](C(C)(F)F)[C@@H](O)[C@H]2O)c1-c1nc2c(C3CC3)nccc2s1 [Example 5177],< 0.5
3,Cc1nc(NCC2(O)CCCC2)nc(NC2(CO)CCCC2)c1-c1nc2c(C)nccc2s1 [Example 5133],< 0.5
4,CCS(=O)(=O)C(C)(C)[C@H]1C[C@@H](Nc2nc(NCC3CC3)nc(C)c2-c2nc3c(C)nccc3s2)[C@H](O)[C@@H]1O [Example 5057],< 0.5
5,Cc1nc(NCC(C)(C)C)nc(N[C@@H]2C[C@H](C(C)(C)NS(C)(=O)=O)[C@@H](O)[C@H]2O)c1-c1nc2c(C)nccc2s1 [Example 5045],< 0.5
6,COCCNc1nc(C)c(-c2nc3c(C)nccc3s2)c(N[C@@H]2C[C@H]([C@@H](O)C(C)C)[C@@H](O)[C@H]2O)n1 [Example 5123],< 0.5
7,Cc1nc(NCC2(O)CCCC2)nc(NC2(C)CCC2)c1-c1nc2c(C)nccc2s1 [Example 5222],< 0.5
8,Cc1nc(NC2CC2)nc(N[C@@H]2C[C@H](C(C)(F)F)[C@@H](O)[C@H]2O)c1-c1nc2c(C3CC3)nccc2s1 [Example 5173],< 0.5
9,CCS(=O)(=O)C(C)(C)[C@H]1C[C@@H](Nc2nc(NC3CCC3)nc(C)c2-c2nc3c(C)nccc3s2)[C@H](O)[C@@H]1O [Example 5058],< 0.5
10,Cc1nc(N)nc(N[C@@H]2C[C@H](C(C)(C)S(=O)(=O)c3ccccc3)[C@@H](O)[C@H]2O)c1-c1nc2c(N)nccc2s1 [Example 5081],< 0.5
11,Cc1nc(N[C@H](C)C2CC2)nc(N[C@@H]2C[C@H](NC(=O)NCc3ccc(C(F)(F)F)cc3)[C@@H](O)[C@H]2O)c1-c1nc2c(C3CC3)nccc2s1 [Example 5090],< 0.5
12,Cc1nc(NC2COC3(CCCCC3)C2)nc(N[C@@H]2C[C@H](C(C)(C)O)[C@@H](O)[C@H]2O)c1-c1nc2c(C)nccc2s1 (some centres unmarked) [Example 5032],< 0.5
13,CO[C@H](C)CNc1nc(C)c(-c2nc3c(C)nccc3s2)c(N[C@@H]2C[C@H](C(C)(C)OC)[C@@H](O)[C@H]2O)n1 [Example 5275],< 0.5
14,Cc1nc(N)nc(N[C@@H]2C[C@H](C(C)(C)O)[C@@H](O)[C@H]2O)c1-c1nc2c(N)nccc2s1 [Example 5029],< 0.5
15,Cc1nc(NCC2CC2)nc(N[C@@H]2C[C@H](C(C)(C)S(C)(=O)=O)[C@@H](O)[C@H]2O)c1-c1nc2c(C3CC3)nccc2s1 [Example 5073],< 0.5
16,Cc1nc(NCC(C)(C)C)nc(N[C@@H]2C[C@H](C(F)F)[C@@H](O)[C@H]2O)c1-c1nc2c(C3CC3)nccc2s1 [Example 5181],< 0.5
17,COC[C@@H](C)Nc1nc(C)c(-c2nc3c(C)nccc3s2)c(N[C@@H]2C[C@H](C3(O)CC3)[C@@H](O)[C@H]2O)n1 [Example 5240],< 0.5
18,CCNC(=O)N[C@H]1C[C@@H](Nc2nc(NC(C)(C)C)nc(C)c2-c2nc3c(C4CC4)nccc3s2)[C@H](O)[C@@H]1O [Example 5094],< 0.5
19,COC[C@@H](C)Nc1nc(C)c(-c2nc3c(C)nccc3s2)c(N[C@@H]2C[C@H](C3(O)CCCC3)[C@@H](O)[C@H]2O)n1 [Example 5104],< 0.5
20,CCC(O)(CC)[C@H]1C[C@@H](Nc2nc(NCC3(C)CC3)nc(C)c2-c2nc3c(C)nccc3s2)[C@H](O)[C@@H]1O [Example 5270],< 0.5

row,Structure (SMILES),EC90 [µM]
1,CCc1nccc2sc(-c3c(C)nc(NC4CC4)nc3N[C@@H]3C[C@H](CS(=O)(=O)c4ccc(F)c(C)c4)[C@@H](O)[C@H]3O)nc12 [Example 5016],< 0.5
2,CNS(=O)(=O)C[C@H]1C[C@@H](Nc2nc(NC3CC3)nc(C)c2-c2nc3c(C)nc(C)cc3s2)[C@H](O)[C@@H]1O [Example 5027],< 0.5
3,Cc1nc(NCCC2(O)CCCC2)nc(N[C@@H]2C[C@H](CS(=O)(=O)c3cc(F)cc(F)c3)[C@@H](O)[C@H]2O)c1-c1nc2c(C)nccc2s1 [Example 5120],< 0.5
4,Cc1nc(NCc2c(F)cccc2F)nc(NC2(CO)CCCC2)c1-c1nc2c(C)nccc2s1 [Example 5117],< 0.5
5,Cc1nc(NCC(F)(F)C(F)(F)F)nc(NC2(CO)CC2)c1-c1nc2c(C)nccc2s1 [Example 5134],< 0.5
6,CCS(=O)(=O)C(C)(C)[C@H]1C[C@@H](Nc2nc(NC3CCC3)nc(C)c2-c2nc3c(C4CC4)nccc3s2)[C@H](O)[C@@H]1O [Example 5060],< 0.5
7,Cc1nc(N[C@H](C)COC(C)C)nc(N[C@@H]2C[C@H](C(C)(C)O)[C@@H](O)[C@H]2O)c1-c1nc2c(C)nccc2s1 [Example 5256],< 0.5
8,CNS(=O)(=O)C[C@H]1C[C@@H](Nc2nc(NCC3CC3)nc(C)c2-c2nc3c(C)nc(C)cc3s2)[C@H](O)[C@@H]1O [Example 5026],< 0.5
9,CCCNc1nc(C)c(-c2nc3c(C4CC4)nccc3s2)c(N[C@@H]2C[C@H](C(C)(F)F)[C@@H](O)[C@H]2O)n1 [Example 5174],< 0.5
10,Cc1nc(N)nc(N[C@@H]2C[C@H](C(F)F)[C@@H](O)[C@H]2O)c1-c1nc2c(C3CC3)nccc2s1 [Example 5190],< 0.5
11,Cc1nc(NCC2CC2)nc(N[C@@H]2C[C@H](C3(O)CC3)[C@@H](O)[C@H]2O)c1-c1nc2c(C)nccc2s1 [Example 5239],< 0.5
12,Cc1nc(N)nc(N[C@@H]2C[C@H](C(C)(C)S(=O)(=O)c3ccccc3)[C@@H](O)[C@H]2O)c1-c1nc2c(C)nccc2s1 [Example 5076],< 0.5
13,Cc1nc(NC2CC2)nc(N[C@@H]2C[C@H](C(C)(C)NS(C)(=O)=O)[C@@H](O)[C@H]2O)c1-c1nc2c(C)nccc2s1 [Example 5048],< 0.5
14,CCS[C@H](C)CNc1nc(C)c(-c2nc3c(C)nccc3s2)c(N[C@@H]2C[C@H](C(C)(C)O)[C@@H](O)[C@H]2O)n1 [Example 5255],< 0.5
15,Cc1nc(N)nc(NC2(CO)CCCC2)c1-c1nc2c(C)nccc2s1 [Example 5130],< 0.5
16,Cc1nc(NCC(F)(F)C(F)(F)F)nc(N[C@@H]2C[C@H](COc3c(F)cccc3F)[C@@H](O)[C@H]2O)c1-c1nc2c(C)nccc2s1 [Example 5213],< 0.5
17,Cc1nc(NC(C)C2CC(F)(F)C2)nc(N[C@@H]2C[C@H](CO)[C@@H](O)[C@H]2O)c1-c1nc2c(C)nccc2s1 (some centres unmarked) [Example 5291],< 0.5
18,CCCNc1nc(C)c(-c2nc3c(C4CC4)nccc3s2)c(N[C@@H]2C[C@H](C(F)F)[C@@H](O)[C@H]2O)n1 [Example 5179],< 0.5
19,Cc1nc(N)nc(N[C@@H]2C[C@H](C3(O)CCCC3)[C@@H](O)[C@H]2O)c1-c1nc2c(C)nccc2s1 [Example 5107],< 0.5
20,Cc1cc(S(=O)(=O)C[C@H]2C[C@@H](Nc3nc(NCC(F)(F)F)nc(C)c3-c3nc4c(C)nccc4s3)[C@H](O)[C@@H]2O)ccc1F [Example 5009],< 0.5
